# Assay results: article PMC6642016 (Nature chemical biology, 2019)
# What was measured:
# Type in all cases: biochemical
# PtmJ = biological target: T1, PtmJ (Streptomyces pactum, UniProt A8R0J5); assay: mass spectrometry of GlcNAc-3ABA-SNAC; settings: donor UDP-GlcNAc
# T1 sequence (A8R0J5 1-318): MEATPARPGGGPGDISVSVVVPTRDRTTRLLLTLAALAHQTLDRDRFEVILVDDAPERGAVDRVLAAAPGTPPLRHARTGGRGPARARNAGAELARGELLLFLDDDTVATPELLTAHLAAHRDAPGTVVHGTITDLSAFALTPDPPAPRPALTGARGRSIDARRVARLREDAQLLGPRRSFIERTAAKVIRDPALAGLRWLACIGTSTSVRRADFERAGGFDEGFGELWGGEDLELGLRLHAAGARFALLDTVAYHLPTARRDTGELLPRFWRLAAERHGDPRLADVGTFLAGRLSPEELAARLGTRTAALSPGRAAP
# PtmI = biological target: T2, PtmI (Streptomyces pactum, UniProt A8R0J4); assay: LC-MS of intact protein; settings: covalent; holo-PtmI 200 μM, malonyl-CoA 8 mM, Tris-HCl pH 8.0, 30 °C
# T2 sequence (A8R0J4 1-94): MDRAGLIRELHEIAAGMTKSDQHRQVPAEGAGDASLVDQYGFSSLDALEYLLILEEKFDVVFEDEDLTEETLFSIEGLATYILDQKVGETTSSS
# PtmS = biological target: T3, PtmS (Streptomyces pactum, UniProt B7TWM6); assay: HPLC and LC-MS of 3ABA-AMP; settings: MgCl2 5 mM, Tris-HCl pH 8.0, 30 °C
# T3 sequence (B7TWM6 1-505): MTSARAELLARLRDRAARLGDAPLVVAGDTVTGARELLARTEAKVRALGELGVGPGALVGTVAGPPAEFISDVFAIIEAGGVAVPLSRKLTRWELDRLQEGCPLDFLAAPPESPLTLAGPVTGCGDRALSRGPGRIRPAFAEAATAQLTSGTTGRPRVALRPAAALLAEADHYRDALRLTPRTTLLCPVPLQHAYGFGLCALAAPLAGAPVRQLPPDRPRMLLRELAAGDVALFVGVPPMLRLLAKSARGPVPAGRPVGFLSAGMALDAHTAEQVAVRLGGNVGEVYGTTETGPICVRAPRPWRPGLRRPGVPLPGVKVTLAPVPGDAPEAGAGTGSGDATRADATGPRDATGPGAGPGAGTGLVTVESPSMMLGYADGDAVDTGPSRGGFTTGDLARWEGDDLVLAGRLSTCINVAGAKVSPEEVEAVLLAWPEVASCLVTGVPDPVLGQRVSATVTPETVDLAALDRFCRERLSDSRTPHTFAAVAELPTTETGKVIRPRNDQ
structure (smiles),measurement,setting,value
CC(=O)NCCSC(=O)c1cccc(N)c1 [3ABA-SNAC],mass spectrometry of GlcNAc-3ABA-SNAC,PtmJ,PtmJ reaction mixture showing that 3ABA-SNAC can be glycosylated to give GlcNAc-3ABA-SNAC
CC(C)(COP(=O)(O)OP(=O)(O)OC[C@H]1O[C@@H](n2cnc3c(N)ncnc32)[C@H](O)[C@@H]1OP(=O)(O)O)[C@@H](O)C(=O)NCCC(=O)NCCSC(=O)CC(=O)O [malonyl-CoA],"LC-MS of intact protein (malonyl-PtmI, self-acylation)",PtmI,Incubation of the holo-PtmI with malonyl-CoA (Figure 3a) also led to the formation of malonyl-PtmI
"Nc1cccc(C(=O)O)c1 [compound 3, 3-aminobenzoic acid]",HPLC and LC-MS of 3ABA-AMP; coupled pyrophosphate assay,PtmS; ATP 5 mM,the purified protein was incubated with 3ABA in the presence of ATP and MgCl2
Nc1ncnc2c1ncn2[C@@H]1O[C@H](COP(=O)(O)OP(=O)(O)OP(=O)(O)O)[C@@H](O)[C@H]1O [ATP],HPLC and LC-MS of 3ABA-AMP; coupled pyrophosphate assay,PtmS; 3ABA 2 mM,incubated with 3ABA in the presence of ATP and MgCl2 to give 3-aminobenzoyl-AMP (3ABA-AMP)
